ChEMBL document CHEMBL1145032, “Effects of heterocyclic aromatic substituents on binding affinities at two distinct sites of somatostatin receptors. Correlation with the electrostatic potential of the substituents” (J Med Chem, 2003)

Assays:
[1] = pKa was determined; assay type: physicochemical
[2] = pKHB (hydrogen bond basicity of the heterocycle) was determined
[3] = target: T1, Somatostatin receptor type 4 (Homo sapiens, UniProt P31391); assay: Tested for binding affinity at human Somatostatin receptor type 4 using ([3-125I-Tyr11)]-SRIF-14 as the radioligand
Substance-P receptor = Substance-P receptor (Homo sapiens, UniProt P25103); assay: Binding affinity against Tachykinin receptor 1
[4] = target: Somatostatin receptor type 2 (Homo sapiens, UniProt P30874); assay: Inhibitory concentration required against human Somatostatin receptor type 2
[5] = target: T1, Somatostatin receptor type 4; assay: Inhibitory concentration required against human Somatostatin receptor type 4

T1 sequence (P31391 whole entry): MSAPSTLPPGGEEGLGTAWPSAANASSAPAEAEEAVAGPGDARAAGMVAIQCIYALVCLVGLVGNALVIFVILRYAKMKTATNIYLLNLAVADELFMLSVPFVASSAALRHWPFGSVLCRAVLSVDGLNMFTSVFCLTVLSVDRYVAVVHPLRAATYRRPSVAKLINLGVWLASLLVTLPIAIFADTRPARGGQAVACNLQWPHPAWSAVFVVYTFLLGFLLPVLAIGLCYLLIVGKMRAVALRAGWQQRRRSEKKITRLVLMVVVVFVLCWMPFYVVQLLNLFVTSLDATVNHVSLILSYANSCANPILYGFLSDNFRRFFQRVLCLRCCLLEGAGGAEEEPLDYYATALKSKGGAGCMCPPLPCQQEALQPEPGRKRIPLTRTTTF
Sequence of Somatostatin receptor type 2 (P30874 whole entry): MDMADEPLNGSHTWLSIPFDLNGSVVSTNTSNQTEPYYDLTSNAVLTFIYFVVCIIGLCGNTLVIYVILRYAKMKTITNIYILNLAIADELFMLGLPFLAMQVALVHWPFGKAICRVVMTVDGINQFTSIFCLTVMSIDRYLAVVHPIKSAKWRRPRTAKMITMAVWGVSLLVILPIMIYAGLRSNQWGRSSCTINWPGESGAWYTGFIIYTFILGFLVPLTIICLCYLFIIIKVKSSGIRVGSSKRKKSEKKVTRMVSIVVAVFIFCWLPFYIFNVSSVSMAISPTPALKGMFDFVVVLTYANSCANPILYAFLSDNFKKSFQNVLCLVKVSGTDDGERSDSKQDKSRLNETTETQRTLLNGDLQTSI
Sequence of Substance-P receptor (P25103 whole entry): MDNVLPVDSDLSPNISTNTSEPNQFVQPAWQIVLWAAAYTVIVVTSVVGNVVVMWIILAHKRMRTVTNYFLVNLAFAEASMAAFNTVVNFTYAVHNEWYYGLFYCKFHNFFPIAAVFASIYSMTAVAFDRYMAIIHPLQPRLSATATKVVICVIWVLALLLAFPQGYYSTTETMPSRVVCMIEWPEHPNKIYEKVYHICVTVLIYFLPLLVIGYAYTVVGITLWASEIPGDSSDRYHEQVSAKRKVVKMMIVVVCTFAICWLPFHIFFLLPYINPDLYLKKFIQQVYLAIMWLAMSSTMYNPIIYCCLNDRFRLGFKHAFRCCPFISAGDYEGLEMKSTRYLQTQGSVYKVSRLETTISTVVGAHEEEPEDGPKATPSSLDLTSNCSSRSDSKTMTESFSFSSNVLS

pKa [1] | pKHB [2] | Ki [3] [nM] | Ki (Substance-P receptor) [nM] | IC50 [4] [nM] | IC50 [5] [nM] | SMILES
5.2 | 1.86 | 360 |  |  |  | NCCCCCOC[C@H]1O[C@@H](OCCc2c[nH]c3ccccc23)[C@H](OCc2ccccc2)[C@@H](OCc2ccccc2)[C@@H]1OCc1cccnc1
5.2 | 1.86 | 890 |  |  |  | NCCCCCOC[C@H]1O[C@@H](OCCc2c[nH]c3ccccc23)[C@H](OCc2ccccc2)[C@@H](OCc2ccccc2)[C@@H]1OCc1ccccn1
6.1 | 1.05 | 1260 |  |  |  | Cc1ccc(CO[C@H]2[C@H](OCc3ccccc3)[C@@H](OCc3ccccc3)[C@H](OCCc3c[nH]c4ccccc34)O[C@@H]2COCCCCCN)cn1
-0.4 | 0.95 | 680 |  |  |  | NCCCCCOC[C@H]1O[C@@H](OCCc2c[nH]c3ccccc23)[C@H](OCc2ccccc2)[C@@H](OCc2ccccc2)[C@@H]1OCc1ccc(F)nc1
 |  | 53 |  | 2250 | 53 | NCCCCCOC[C@H]1O[C@@H](OCCc2c[nH]c3ccccc23)[C@H](OCc2cnc[nH]2)[C@@H](OCc2ccccc2)[C@@H]1OCc1cccnc1
5.2 | 1.86 | 570 |  |  |  | NCCCCCOC[C@H]1O[C@@H](OCCc2c[nH]c3ccccc23)[C@H](OCc2ccccc2)[C@@H](OCc2ccccc2)[C@@H]1OCc1ccncc1
 |  |  |  |  | 800 | NCCCCCOC[C@@H]1O[C@H](OCCc2c[nH]c3ccccc23)[C@H](OCc2cnc[nH]2)C(OCc2ccccc2)[C@H]1OCCc1cccnc1 (single isomer, unassigned; (+))

Further lines, the compound ahead of its results:

SMILES | pKa [1] | pKHB [2] | Ki [3] [nM] | Ki (Substance-P receptor) [nM] | IC50 [4] [nM] | IC50 [5] [nM]
NCCCCCOC[C@H]1O[C@@H](OCCc2c[nH]c3ccccc23)[C@H](OCc2ccccc2)[C@@H](OCc2ccccc2)[C@@H]1OCc1cnccn1 | 0.7 | 1.95 | 260 |  |  | 
NCCCCCOC[C@H]1O[C@@H](OCCc2c[nH]c3ccccc23)[C@H](OCc2ccccc2)[C@@H](OCc2ccccc2)[C@@H]1OCc1ccccc1 |  |  | 1650 | 150 |  | 
CC(=O)NCCCCCOC[C@H]1O[C@@H](OCCc2c[nH]c3ccccc23)[C@H](OCc2ccccc2)[C@@H](OCc2ccccc2)[C@@H]1O |  |  |  | 27 |  | 
NCCCCCOC[C@H]1O[C@@H](OCCc2c[nH]c3ccccc23)[C@H](OCc2ccccc2)[C@@H](OCc2ccccc2)[C@@H]1OCc1ccc(Cl)nc1 | 0.5 |  | 1200 |  |  | 
NCCCCCOC[C@H]1O[C@@H](OCCc2c[nH]c3ccccc23)[C@H](OCc2ccccc2)[C@@H](OCc2ccccc2)[C@@H]1OCc1c[nH]cn1 | 7.2 | 2.03 | 1040 |  |  | 
NCCCCCOC[C@@H]1O[C@H](OCCc2c[nH]c3ccccc23)[C@H](OCc2cnc[nH]2)C(OCc2ccccc2)[C@H]1OCc1ccccc1 (single isomer, unassigned; (+)) |  |  | 100 |  | 800 | 100
